Laboratory results as given in article doi:10.1101/2023.11.24.568596v1 (biorxiv, 2023).
Values belong to the compound of their own block, whether it stands above or below them.

Tests used:
Conditions in all cases: binder
CDK2 = CDK2 (Homo sapiens, UniProt P24941)
DMPK1 = target: T1, DMPK1 (Homo sapiens, UniProt Q09013)
T1 sequence (Q09013 1-629): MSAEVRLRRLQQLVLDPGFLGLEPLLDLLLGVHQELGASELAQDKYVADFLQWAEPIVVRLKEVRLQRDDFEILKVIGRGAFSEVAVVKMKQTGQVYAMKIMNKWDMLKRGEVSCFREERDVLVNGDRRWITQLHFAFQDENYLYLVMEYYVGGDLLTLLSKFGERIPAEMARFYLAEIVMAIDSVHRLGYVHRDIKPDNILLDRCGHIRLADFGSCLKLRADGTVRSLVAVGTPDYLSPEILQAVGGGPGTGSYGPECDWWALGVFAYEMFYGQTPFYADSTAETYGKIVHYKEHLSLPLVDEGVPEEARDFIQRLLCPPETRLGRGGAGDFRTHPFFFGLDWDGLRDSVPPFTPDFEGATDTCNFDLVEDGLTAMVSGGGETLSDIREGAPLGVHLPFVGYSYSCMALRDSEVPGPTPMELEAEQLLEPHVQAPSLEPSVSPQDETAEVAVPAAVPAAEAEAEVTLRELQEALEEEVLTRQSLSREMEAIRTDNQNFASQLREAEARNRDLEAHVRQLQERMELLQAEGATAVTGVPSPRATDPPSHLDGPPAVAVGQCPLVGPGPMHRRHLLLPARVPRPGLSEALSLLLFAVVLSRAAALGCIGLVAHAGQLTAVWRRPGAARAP

EphA4 = EphA4 (Homo sapiens, UniProt P54764)
Chain of EphA4 (P54764 whole entry): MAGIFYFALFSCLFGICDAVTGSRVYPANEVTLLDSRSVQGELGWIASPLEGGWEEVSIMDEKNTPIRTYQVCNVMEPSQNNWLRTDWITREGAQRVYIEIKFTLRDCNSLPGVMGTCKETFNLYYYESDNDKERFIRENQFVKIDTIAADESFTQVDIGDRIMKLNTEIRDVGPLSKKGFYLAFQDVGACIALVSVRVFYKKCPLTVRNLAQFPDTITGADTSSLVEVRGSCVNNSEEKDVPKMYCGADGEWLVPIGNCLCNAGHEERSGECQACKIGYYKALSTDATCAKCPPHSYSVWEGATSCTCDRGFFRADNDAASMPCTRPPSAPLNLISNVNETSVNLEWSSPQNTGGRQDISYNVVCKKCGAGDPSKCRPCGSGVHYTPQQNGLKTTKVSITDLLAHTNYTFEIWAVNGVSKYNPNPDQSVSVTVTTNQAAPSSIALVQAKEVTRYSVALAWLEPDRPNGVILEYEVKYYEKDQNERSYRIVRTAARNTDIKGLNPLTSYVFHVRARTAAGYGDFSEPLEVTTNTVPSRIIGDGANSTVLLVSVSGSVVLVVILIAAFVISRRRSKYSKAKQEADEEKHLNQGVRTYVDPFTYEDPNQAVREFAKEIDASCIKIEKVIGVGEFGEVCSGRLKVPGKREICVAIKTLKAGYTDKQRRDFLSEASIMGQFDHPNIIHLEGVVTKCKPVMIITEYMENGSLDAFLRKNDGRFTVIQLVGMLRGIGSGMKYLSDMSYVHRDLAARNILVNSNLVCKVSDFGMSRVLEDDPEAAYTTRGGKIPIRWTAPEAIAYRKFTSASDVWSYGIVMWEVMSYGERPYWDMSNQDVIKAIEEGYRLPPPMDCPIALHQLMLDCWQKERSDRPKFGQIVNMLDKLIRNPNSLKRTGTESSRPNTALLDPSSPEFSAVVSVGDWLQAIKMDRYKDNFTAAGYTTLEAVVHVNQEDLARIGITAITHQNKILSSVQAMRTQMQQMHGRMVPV

NEK1 = target: T2, NEK1 (Homo sapiens, UniProt Q96PY6)
T2 sequence (Q96PY6 1-1258): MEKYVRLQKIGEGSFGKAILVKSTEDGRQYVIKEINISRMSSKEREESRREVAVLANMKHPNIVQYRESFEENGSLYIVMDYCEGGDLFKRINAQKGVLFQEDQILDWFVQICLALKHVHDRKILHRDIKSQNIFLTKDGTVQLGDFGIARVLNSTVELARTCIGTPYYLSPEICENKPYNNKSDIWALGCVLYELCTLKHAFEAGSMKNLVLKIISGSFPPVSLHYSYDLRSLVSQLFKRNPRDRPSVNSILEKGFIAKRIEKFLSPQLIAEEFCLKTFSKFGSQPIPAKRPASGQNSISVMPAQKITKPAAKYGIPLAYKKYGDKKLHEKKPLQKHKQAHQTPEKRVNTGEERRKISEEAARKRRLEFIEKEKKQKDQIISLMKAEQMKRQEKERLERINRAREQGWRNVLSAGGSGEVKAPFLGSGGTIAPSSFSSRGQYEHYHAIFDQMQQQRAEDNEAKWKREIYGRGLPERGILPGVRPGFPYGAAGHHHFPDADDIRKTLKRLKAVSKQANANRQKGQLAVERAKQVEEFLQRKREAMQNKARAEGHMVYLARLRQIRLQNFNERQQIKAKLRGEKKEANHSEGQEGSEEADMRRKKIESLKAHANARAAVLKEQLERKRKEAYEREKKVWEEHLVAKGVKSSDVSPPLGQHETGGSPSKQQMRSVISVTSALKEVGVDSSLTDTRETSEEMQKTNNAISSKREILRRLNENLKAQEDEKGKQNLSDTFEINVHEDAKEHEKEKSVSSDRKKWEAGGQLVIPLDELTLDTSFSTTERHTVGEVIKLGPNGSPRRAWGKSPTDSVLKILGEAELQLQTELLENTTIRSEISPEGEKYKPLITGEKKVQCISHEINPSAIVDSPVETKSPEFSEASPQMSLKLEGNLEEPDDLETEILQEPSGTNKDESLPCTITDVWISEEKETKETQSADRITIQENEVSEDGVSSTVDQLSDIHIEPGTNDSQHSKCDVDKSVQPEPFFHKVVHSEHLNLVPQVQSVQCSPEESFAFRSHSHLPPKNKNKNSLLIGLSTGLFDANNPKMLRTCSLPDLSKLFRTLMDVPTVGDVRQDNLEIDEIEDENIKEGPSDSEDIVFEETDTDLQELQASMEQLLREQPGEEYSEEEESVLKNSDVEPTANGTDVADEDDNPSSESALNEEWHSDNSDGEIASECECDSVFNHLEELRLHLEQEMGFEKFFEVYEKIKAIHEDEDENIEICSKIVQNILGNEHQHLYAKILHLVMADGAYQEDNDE

ULK3 = target: T3, ULK3 (Homo sapiens, UniProt Q6PHR2)
T3 sequence (Q6PHR2 1-472): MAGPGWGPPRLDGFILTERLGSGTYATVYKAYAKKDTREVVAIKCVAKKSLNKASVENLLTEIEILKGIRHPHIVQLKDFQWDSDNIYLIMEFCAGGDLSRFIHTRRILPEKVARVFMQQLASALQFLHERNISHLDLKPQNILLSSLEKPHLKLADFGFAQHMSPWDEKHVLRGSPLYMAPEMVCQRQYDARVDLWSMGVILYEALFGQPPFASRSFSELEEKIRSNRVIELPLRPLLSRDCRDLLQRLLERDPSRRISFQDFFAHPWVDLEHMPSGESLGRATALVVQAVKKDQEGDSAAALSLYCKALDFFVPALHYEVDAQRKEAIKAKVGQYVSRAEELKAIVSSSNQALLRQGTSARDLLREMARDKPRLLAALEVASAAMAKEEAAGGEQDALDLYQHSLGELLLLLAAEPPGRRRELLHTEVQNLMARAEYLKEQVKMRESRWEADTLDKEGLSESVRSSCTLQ

dTm 33 (CDK2): 6.0 °C
dTm 33 (DMPK1): -4.7 °C
dTm 33 (EphA4): 3.5 °C
dTm 33 (NEK1): -3.6 °C
dTm 33 (ULK3): 13.9 °C
Compound: Cc1cccc(-c2ccc(-c3cc4cnc(Nc5ccc(F)c(CO)c5)nc4n(CCCCN)c3=O)c(Cl)c2)n1 [compound 33, 8-(4-Aminobutyl)-6-(2-chloro-4-(6-methylpyridin-2-yl)phenyl)-2-((4-fluoro-3-(hydroxymethyl)phenyl)amino)pyrido[2,3-d]pyrimidin-7(8H)-one]

dTm 34 (CDK2): 1.4 °C
dTm 34 (DMPK1): -0.8 °C
dTm 34 (EphA4): 2.5 °C
dTm 34 (NEK1): -1.0 °C
dTm 34 (ULK3): 8.3 °C
Compound: COc1ccc(O)c(Nc2ncc3cc(-c4ccc(-c5cccc(C)n5)cc4Cl)c(=O)n(CCCCN)c3n2)c1 [compound 34, 8-(4-Aminobutyl)-6-(2-chloro-4-(6-methylpyridin-2-yl)phenyl)-2-((2-hydroxy-5-methoxy-phenyl)amino)pyrido[2,3-d]pyrimidin-7(8H)-one]

dTm 35 (CDK2): 1.0 °C
dTm 35 (DMPK1): -2.1 °C
dTm 35 (EphA4): 2.7 °C
dTm 35 (NEK1): -0.7 °C
dTm 35 (ULK3): 12.7 °C
Compound: COc1cc(N2CCOCC2)ccc1Nc1ncc2cc(-c3ccc(-c4cccc(C)n4)cc3Cl)c(=O)n(CCCCN)c2n1 [compound 35, 8-(4-Aminobutyl)-6-(2-chloro-4-(6-methylpyridin-2-yl)phenyl)-2-((2-methoxy-4-morpholino-phenyl)amino)pyrido[2,3-d]pyrimidin-7(8H)-one]

dTm 36 (CDK2): 0.6 °C
dTm 36 (DMPK1): -1.5 °C
dTm 36 (EphA4): 2.4 °C
dTm 36 (NEK1): 0.0 °C
dTm 36 (ULK3): 8.9 °C
Compound: COc1cc(N2CCN(C)CC2)ccc1Nc1ncc2cc(-c3ccc(-c4cccc(C)n4)cc3Cl)c(=O)n(CCCCN)c2n1 [compound 36, 8-(4-Aminobutyl)-6-(2-chloro-4-(6-methylpyridin-2-yl)phenyl)-2-((2-methoxy-4-(4-methylpiperazin-1-yl)phenyl)amino)pyrido[2,3-d]pyrimidin-7(8H)-one]
